In US8748376B2, “Stable formulations of peptides” (Novo Nordisk A/S, priority 2004, dated 2014):

Assay: Thioflavine T stress test of heat treated liraglutide preparations
Assay type: physicochemical
Description: The physical stability of the liraglutide preparations was evaluated by the use of a florescence method; the Thioflavine T-test where the histological thiazole dye Thioflavine T (ThT) was used as an indicator of fibril formation. By the use of Thioflavine T-test it was possible to determine the presence of fibrils in the different formulations. The method was based on the fluorescent characteristics of ThT.
ThT was used in a stress test applying the different formulations in microtiter plates with ThT at 35° C. and shaken with 350 rpm until the formulations were fibrillated. Graphs of the fluorescence intensity (FI) as a function of time (sec) were obtained.

## CCCCCCCCCCCCCCCC(=O)N[C@@H](CCC(=O)NCCCC[C@H](NC(=O)[C@H](C)NC(=O)[C@H](C)NC(=O)[C@H](CCC(N)=O)NC(=O)CNC(=O)[C@H](CCC(=O)O)NC(=O)[C@H](CC(C)C)NC(=O)[C@H](Cc1ccc(O)cc1)NC(=O)[C@H](CO)NC(=O)[C@H](CO)NC(=O)[C@@H](NC(=O)[C@H](CC(=O)O)NC(=O)[C@H](CO)NC(=O)[C@@H](NC(=O)[C@H](Cc1ccccc1)NC(=O)[C@@H](NC(=O)CNC(=O)[C@H](CCC(=O)O)NC(=O)[C@H](C)NC(=O)[C@@H](N)Cc1cnc[nH]1)[C@@H](C)O)[C@@H](C)O)C(C)C)C(=O)N[C@@H](CCC(=O)O)C(=O)N[C@@H](Cc1ccccc1)C(=O)N[C@H](C(=O)N[C@@H](C)C(=O)N[C@@H](Cc1c[nH]c2ccccc12)C(=O)N[C@@H](CC(C)C)C(=O)N[C@H](C(=O)N[C@@H](CCCNC(=N)N)C(=O)NCC(=O)N[C@@H](CCCNC(=N)N)C(=O)NCC(=O)O)C(C)C)[C@@H](C)CC)C(=O)O [liraglutide, Arg^34, Lys^26(N^ε-(γ-Glu(N^α-hexadecanoyl)))-GLP-1(7-37)]
60 and 80° C., 120 minutes in comparison to 1 minute of heat treatment
  physical stability, time of heat treatment: improve the physical stability significantly
From 22 to 50-80° C. at pH 9-10
  physical stability by increasing the temperature of heat treatment: significantly improved
Heat treatment 22 to 80° C.
  physical stability as temperature of heat treatment was increased: significantly improved
pH 9-10, all temperatures, 15 to 20 minutes compared to 1 minute of heat treatment
  physical stability, time of heat treatment: improve the physical stability significantly
